Reference: patent US9650399B2, “Salicylic acid derivatives, pharmaceutically acceptable salt thereof, composition thereof and method of use thereof” (The Governing Council of the University of Toronto, priority 2012, dated 2017)
Like-named read-outs stand apart in the source and are kept apart here.

Key:
JAK2 = molecular target: T1, JAK2 (Homo sapiens, UniProt O60674); assay: HotSpot radiometric kinase assay, JAK2; type: biochemical; details: 5 uM compound, 10 μM ATP, duplicate (Data 1, Data 2)
T1 construct: purchased Reaction Biology Corporation
Description: (§1) Briefly, this assay employs a radiometric detection system to measure kinase phosphoryl transfer activity.
(§2) Test compound was evaluated at a single dose of 5 μM in duplicate mode. […] Reactions were carried out at 10 μM ATP.
(§3) Preliminary screen against AKT, c-Src, ERK1, JaK1 and JaK2 was performed at Reaction Biology Corporation (www.reactionbiology.com, Malvern, Pa.) using the “HotSpot” assay platform. Specific kinase/substrate pairs along with their required cofactors were prepared in reaction buffer; 20 mM Hepes pH 7.5, 10 mM MgCl2, 1 mM EGTA, 0.02% Brij35, 0.02 mg/ml BSA, 0.1 mM Na3VO4, 2 mM DTT, 1% DMSO. The screen was completed in duplicate at a single concentration of 5 μM. The reaction well with the subject compound was treated with a mixture of ATP (Sigma, St. Louis Mo.) and ^33P ATP (Perkin Elmer, Waltham Mass.) to a final concentration of 10 μM. […] Reaction wells were kept at room temperature for 120 minutes, followed by spotting each of the reactions onto P81 ion exchange filter paper (Whatman Inc., Piscataway, N.J.). […] Background was subtracted using control reactions and the kinase activity data was expressed as the percent remaining kinase activity in test samples compared to vehicle (dimethyl sulfoxide) reactions. All IC50 values (table 3) and curve fitting were produced using Prism (GraphPad Software) (FIG. 5).

AKT1 = molecular target: T2, AKT1 (Homo sapiens, UniProt P31749); assay: HotSpot radiometric kinase assay, AKT1; type: biochemical; details: 5 uM compound, 10 μM ATP, duplicate (Data 1, Data 2)
T2 construct: purchased Reaction Biology Corporation

Prostate (DU145) = assay: IC50 in prostate cancer cells; type: cell-based; details: Homo sapiens, DU-145; Table 6
ERK1 = molecular target: T3, ERK1 (Homo sapiens, UniProt P27361); assay: HotSpot radiometric kinase assay, ERK1; type: biochemical; details: 5 uM compound, 10 μM ATP, duplicate (Data 1, Data 2)
T3 construct: purchased Reaction Biology Corporation

[1] = system: Breast cancer cells (MDA-MB-468); assay: IC50 in breast cancer cells; type: cell-based; details: Homo sapiens, Table 6
BTSC30M = assay: alamarBlue cell viability, BTSC 30M; type: cell-based, human; details: for IC50: Homo sapiens
Description: (§4) First, the library was screened for biological activity against a set of three representative GBM BTSCs derived from GBM patients, including the very aggressive GBM BTSC lines, BTSC73M, BTSC30M, BTSC68EF. Dissociated BTSC spheres were seeded at 1500 cells/96-well and treated with drug compound or vehicle (DMSO) one day after plating. Cell viability following drug treatment was assessed after 72 hrs using the ALAMARBLUE™ assay (Invitrogen) according to the manufacturer's instructions. All culture experiments were performed in triplicate with a minimum of three wells per condition.
(§5) BTSC spheres were dissociated to single cells with the enzyme Accumax (Innovative Technologies), seeded at 1500 cells/96-well and treated with drug or vehicle (DMSO) one day after plating. […] BTSC spheres were dissociated to single cells as above and plated in 96 well plates in triplicate at 3000 cells/96-well. […] Cell viability following drug treatment was assessed three days later using the ALAMARBLUE™ assay (Invitrogen) according to the manufacturer's instructions. All culture experiments were performed in triplicate with a minimum of three wells per condition.

JAK1 = molecular target: T4, JAK1 (Homo sapiens, UniProt P23458); assay: HotSpot radiometric kinase assay, JAK1; type: biochemical; details: 5 uM compound, 10 μM ATP, duplicate (Data 1, Data 2)
T4 construct: purchased Reaction Biology Corporation
Description: as §1, §2, §3

c-Src = molecular target: T5, c-Src (Homo sapiens, UniProt P12931); assay: HotSpot radiometric kinase assay, c-Src; type: biochemical; details: 5 uM compound, 10 μM ATP, duplicate (Data 1, Data 2)
T5 construct: purchased Reaction Biology Corporation
Description: as §1, §2, §3

[2] = system: leukemia cancer cells (AML-2); assay: IC50 in leukemia cancer cells; type: cell-based; details: Table 6
BTSC73M = assay: alamarBlue cell viability, BTSC 73M; type: cell-based, human; details: Table 4 library screen, alamarBlue; for IC50: Homo sapiens, read-out: 73M IC50
Description: as §4, §5

[3] = system: patient-derived pancreatic cancer line (Panc10.05); assay: MTS cell survival, pancreatic cancer line; type: cell-based; details: Homo sapiens, Panc1005, Panc10.05, 72 h, read-out: ED50 (IC50)
Description: Low passage patient-derived pancreatic cancer line (Panc10.05) was plated in 96-well plates (3×10^3 per well) and allowed to attach overnight. STAT3 inhibitors 31, 41, 42 and 38 were added at indicated concentrations. Cell survival was measured 72 h after drug addition with the MTS assay.

STAT3 SH2 domain = STAT3 SH2 domain (Homo sapiens, UniProt P40763); assay: fluorescence polarization (FP) assay, STAT3; details: 5-FAM-GpYLPQTV-NH2 probe
Description: The buffer used contained 50 mM NaCl, 10 mM Hepes, pH 7.5, 1 mM EDTA and 2 mM dithiothreitol and a final concentration of 5% DMSO.
Test compounds were dissolved in DMSO and diluted using a dilution medium consisting of 50 mM NaCl, 10 mM Hepes, pH 7.5, 1 mM EDTA, and 2 mM dithiothreitol. Fluorescently-labelled pYLPQTV peptide (FAM-pYLPQTV) was kept at a final concentration of 10 nM in the buffered solution.
The midpoint of the saturation curve was used to determine the STAT3 concentration required for the competitive fluorescent polarization assay. […] 7.5 μL of inhibitory molecules (and positive control) solution were individually added to the plate. The final inhibitory concentrations were 100 μL, 50 μL, 25A, 12.5 μL, 6.3 μL, or 3.1 μL. The 10% DMSO buffer solution was incubated for 15-30 minutes before signal measurements by the Infinite M1000.

BTSC68EF = assay: alamarBlue cell viability, BTSC 68EF; type: cell-based, human; details: Table 4 library screen, alamarBlue; for IC50: Homo sapiens, read-out: 68EF IC50
Description: as §4, §5

BTSCs = assay: alamarBlue cytotoxicity across BTSC lines; type: cell-based, human; details: Homo sapiens
Description: as §4, §5

pSTAT3 (Y705) = assay: Western blot of phosphorylated STAT3 in BTSCs; type: cell-based, human; details: Western blot
Description: Blots were stained with antibodies: phospho-Y705, phospho-S727, Bcl-xL, cyclin D1, PARP and Actin. Bands were visualized with the ECL PLUS™ Western Blotting Detection System and […]™ (Amersham). […] BTSC spheres were lysed in modified RIPA buffer supplemented with Complete Mini protease (Roche) and Halt phosphatase (Thermo Scientific) inhibitor cocktails. […] Blots were stained with the following antibodies: phospho-STAT3 Y705 (1:1000, Cell Signalling Technology), phospho-STAT3 S727 (1:1000, Cell Signalling Technology), STAT3 (1:1000, Santa Cruz Biotechnology), Bcl-xL (1:1000, Cell Signalling Technology), cyclin D1 (1:1000, Cell Signalling Technology) PARP (1:1000, Cell Signalling Technology) and Actin (1:2500, Santa Cruz Biotechnology). HRP conjugated secondary antibodies, goat anti-rabbit (Cell Signalling Technology) were used at 1:2000 and donkey anti-mouse, donkey anti-goat, and goat anti-rabbit, (Calbiochem) were used at 1:6000. Bands were visualized with the ECL Plus Western Blotting Detection System and Hyperfilm (Amersham).

[4] = system: normal human fetal astrocytes (HF 2003, HF 2006, HF 2009, HF 2013); assay: toxicity in normal human fetal astrocytes; type: cell-based; details: concentrations of up to 5 μM
Description: Given the nM cytoxicity, these compounds were assayed for biological effects in healthy cells.
GBM BTSCs were cultured from a series of tumor specimens obtained following informed consent from adult GBM patients during their operative procedure as previously described (Kelly et al, Stem Cells 2009) and approved by the University of Calgary Ethics Review Board. Briefly, BTSC cultures were initiated in serum-free defined culture medium (SFM) and gave rise to nonadherent spheres after 7 to 21 days in culture. Primary tumor spheres were expanded for several passages and then cryopreserved in 10% DMSO (Sigma Aldrich) in serum-free defined medium until use in experiments. Human fetal neural stem cells were also cultured as previously described and induced to differentiate into astrocytes by addition of 10% fetal bovine serum and removal of EGF, FGF-2 and heparan sulfate.

147EF = assay: alamarBlue cell viability, BTSC 147EF; type: cell-based, human; details: Homo sapiens, Table 4 library screen
Description: BTSC spheres were dissociated to single cells with the enzyme Accumax (Innovative Technologies), seeded at 1500 cells/96-well and treated with drug or vehicle (DMSO) one day after plating. Cytotoxicity studies were repeated independently at Sickkids Hospital using BTSC lines 25M, 67EF, 73EF, 84EF and 127EF. BTSC spheres were dissociated to single cells as above and plated in 96 well plates in triplicate at 3000 cells/96-well. In both sets of experiments drugs were used as serial dilutions within the range of 5 μM to 100 nM in the first set and 25 μM to 10 nM. Cell viability following drug treatment was assessed three days later using the ALAMARBLUE™ assay (Invitrogen) according to the manufacturer's instructions. All culture experiments were performed in triplicate with a minimum of three wells per condition. Table 4 below illustrates a screen of the library against a number of BTSCs using ALAMARBLUE™ assay.

[5] = Table 4 library screen, alamarBlue
[6] = read-out: 30M IC50 (μM), Table 4 library screen, alamarBlue

T3 sequence (P27361 whole entry): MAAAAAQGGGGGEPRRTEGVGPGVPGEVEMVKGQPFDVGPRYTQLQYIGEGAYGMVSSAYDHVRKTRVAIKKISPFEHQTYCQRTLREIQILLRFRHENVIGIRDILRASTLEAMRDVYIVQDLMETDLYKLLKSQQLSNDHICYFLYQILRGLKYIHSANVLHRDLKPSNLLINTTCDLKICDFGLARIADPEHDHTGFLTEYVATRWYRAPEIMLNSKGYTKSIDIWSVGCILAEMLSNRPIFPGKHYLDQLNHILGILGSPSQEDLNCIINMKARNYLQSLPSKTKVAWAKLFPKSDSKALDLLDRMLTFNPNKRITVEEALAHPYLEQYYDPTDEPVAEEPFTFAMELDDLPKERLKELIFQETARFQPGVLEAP
T5 sequence (P12931 whole entry): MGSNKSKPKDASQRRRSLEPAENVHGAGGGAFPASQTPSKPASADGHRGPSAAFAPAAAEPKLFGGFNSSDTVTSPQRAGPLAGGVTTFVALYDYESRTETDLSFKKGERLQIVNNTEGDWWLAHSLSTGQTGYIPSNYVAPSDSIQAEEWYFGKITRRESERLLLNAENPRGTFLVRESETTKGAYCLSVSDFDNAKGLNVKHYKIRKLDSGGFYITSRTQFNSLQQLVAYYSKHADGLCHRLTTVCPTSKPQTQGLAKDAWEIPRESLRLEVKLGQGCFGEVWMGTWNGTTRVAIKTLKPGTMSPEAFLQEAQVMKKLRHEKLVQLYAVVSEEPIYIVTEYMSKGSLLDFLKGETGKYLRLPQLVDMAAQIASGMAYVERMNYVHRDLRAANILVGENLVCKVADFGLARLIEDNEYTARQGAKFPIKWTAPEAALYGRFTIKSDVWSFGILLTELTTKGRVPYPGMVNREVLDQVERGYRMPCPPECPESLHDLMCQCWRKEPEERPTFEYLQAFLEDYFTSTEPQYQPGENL
T1 sequence (O60674 whole entry): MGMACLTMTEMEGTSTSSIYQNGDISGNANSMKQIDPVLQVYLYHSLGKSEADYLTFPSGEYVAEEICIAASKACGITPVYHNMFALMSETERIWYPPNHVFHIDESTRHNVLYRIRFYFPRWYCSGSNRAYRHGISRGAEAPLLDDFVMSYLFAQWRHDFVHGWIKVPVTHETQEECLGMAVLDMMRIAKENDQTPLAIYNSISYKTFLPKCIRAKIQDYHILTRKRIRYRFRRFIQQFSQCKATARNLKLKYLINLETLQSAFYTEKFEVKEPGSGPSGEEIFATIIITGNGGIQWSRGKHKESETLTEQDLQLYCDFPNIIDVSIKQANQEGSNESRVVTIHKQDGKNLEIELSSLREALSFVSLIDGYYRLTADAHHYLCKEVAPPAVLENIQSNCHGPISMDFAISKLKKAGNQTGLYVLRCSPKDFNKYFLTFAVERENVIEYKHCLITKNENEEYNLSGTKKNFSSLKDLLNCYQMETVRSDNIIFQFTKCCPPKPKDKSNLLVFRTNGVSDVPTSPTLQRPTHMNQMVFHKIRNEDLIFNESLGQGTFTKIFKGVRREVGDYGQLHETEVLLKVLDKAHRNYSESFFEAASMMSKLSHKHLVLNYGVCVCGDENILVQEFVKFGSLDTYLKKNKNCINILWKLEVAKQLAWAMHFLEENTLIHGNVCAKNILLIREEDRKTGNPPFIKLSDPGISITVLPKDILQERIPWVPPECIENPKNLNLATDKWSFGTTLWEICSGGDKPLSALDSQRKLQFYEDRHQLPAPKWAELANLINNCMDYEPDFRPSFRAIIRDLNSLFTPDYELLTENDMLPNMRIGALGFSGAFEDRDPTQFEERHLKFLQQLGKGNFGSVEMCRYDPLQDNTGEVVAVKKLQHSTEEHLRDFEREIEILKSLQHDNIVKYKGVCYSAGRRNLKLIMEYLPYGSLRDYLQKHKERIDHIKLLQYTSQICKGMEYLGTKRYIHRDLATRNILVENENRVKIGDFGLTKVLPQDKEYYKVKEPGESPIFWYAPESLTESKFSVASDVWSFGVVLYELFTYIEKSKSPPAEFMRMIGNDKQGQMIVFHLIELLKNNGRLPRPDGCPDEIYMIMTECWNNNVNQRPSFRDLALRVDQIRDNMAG
T2 sequence (P31749 whole entry): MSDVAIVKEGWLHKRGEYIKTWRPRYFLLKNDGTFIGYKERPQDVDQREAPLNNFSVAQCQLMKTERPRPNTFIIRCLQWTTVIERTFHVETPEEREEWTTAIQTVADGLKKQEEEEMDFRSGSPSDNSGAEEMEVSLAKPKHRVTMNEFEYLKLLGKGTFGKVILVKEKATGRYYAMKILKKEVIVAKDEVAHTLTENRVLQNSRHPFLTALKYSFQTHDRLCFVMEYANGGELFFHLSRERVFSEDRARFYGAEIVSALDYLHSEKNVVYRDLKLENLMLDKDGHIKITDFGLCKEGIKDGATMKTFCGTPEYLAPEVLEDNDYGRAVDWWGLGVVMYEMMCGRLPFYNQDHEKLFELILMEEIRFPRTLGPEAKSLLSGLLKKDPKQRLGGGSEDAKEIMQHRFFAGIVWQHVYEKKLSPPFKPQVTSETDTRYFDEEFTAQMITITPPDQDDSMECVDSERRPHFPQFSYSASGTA
T4 sequence (P23458 whole entry): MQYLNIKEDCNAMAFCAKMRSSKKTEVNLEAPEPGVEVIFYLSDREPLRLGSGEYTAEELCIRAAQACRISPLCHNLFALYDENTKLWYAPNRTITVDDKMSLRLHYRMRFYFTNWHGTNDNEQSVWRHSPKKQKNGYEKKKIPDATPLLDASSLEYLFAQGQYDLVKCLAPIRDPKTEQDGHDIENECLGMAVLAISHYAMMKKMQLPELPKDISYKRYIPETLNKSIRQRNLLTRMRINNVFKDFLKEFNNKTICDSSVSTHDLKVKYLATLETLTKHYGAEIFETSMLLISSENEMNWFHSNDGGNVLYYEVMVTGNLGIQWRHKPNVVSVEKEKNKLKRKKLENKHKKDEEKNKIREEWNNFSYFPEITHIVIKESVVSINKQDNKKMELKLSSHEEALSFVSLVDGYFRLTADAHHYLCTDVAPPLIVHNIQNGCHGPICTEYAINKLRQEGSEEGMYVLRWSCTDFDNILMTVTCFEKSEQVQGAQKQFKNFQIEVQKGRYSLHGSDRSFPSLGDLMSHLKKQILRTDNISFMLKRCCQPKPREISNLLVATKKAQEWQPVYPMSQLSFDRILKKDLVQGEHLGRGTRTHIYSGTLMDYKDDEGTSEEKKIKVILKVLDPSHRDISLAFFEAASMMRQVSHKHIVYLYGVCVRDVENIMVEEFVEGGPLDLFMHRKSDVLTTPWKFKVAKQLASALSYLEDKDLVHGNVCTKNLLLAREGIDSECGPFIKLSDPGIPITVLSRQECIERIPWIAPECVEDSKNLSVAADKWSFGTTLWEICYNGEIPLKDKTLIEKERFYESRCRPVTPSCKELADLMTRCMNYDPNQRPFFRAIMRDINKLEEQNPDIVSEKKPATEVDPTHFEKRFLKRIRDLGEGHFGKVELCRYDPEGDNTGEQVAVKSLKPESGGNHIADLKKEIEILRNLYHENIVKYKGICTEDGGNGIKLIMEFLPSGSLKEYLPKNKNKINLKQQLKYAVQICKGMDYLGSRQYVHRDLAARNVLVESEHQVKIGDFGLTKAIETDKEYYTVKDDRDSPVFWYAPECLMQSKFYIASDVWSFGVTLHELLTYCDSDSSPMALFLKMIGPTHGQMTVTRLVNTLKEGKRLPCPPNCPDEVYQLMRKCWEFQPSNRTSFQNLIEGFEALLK
Chain of STAT3 SH2 domain (P40763 whole entry, the tested form may be a part): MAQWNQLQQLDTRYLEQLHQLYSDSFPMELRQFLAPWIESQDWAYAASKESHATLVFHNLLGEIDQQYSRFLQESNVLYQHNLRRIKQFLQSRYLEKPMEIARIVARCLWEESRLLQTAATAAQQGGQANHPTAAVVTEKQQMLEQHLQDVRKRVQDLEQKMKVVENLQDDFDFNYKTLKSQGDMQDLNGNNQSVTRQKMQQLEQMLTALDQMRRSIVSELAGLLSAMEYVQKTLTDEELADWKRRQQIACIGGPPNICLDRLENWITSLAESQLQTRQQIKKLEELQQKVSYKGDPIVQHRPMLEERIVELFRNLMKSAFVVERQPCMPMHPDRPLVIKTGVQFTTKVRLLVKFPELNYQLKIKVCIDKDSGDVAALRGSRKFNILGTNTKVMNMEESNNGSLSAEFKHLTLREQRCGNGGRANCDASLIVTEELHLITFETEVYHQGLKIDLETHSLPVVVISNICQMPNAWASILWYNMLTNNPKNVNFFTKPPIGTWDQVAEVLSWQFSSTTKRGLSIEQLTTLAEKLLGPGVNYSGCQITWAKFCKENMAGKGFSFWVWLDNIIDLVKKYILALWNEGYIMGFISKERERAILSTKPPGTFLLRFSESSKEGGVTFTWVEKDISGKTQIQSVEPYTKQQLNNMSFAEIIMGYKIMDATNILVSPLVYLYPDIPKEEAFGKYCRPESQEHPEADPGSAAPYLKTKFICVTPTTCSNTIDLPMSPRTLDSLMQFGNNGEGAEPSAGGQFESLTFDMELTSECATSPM

Compound: CC(=O)Oc1cc(N(Cc2ccc(C3CCCCC3)cc2)C(=O)CN(C)S(=O)(=O)c2ccc(C)cc2)ccc1C(=O)O [SH-05-19, 2-acetoxy-4-(N-(4-cyclohexylbenzyl)-2-(N,4-dimethylphenylsulfonamido)acetamido)benzoic acid]
- remaining activity at 5 µM (JAK2; read-out: % Enzyme activity relative to DMSO (control), JAK2): 46.1%
- % Enzyme activity relative to DMSO (control), JAK2 (JAK2; remaining activity): 47.70%
- remaining activity at 5 µM (AKT1; read-out: % Enzyme activity relative to DMSO (control), AKT1): 90.6%
- % Enzyme activity relative to DMSO (control), AKT1 (AKT1; remaining activity): 87.91%
- IC50 (Prostate (DU145)): 9800 nM
- remaining activity at 5 µM (ERK1; read-out: % Enzyme activity relative to DMSO (control), ERK1): 119%
- % Enzyme activity relative to DMSO (control), ERK1 (ERK1; remaining activity): 126.49%
- IC50 [1]: < 1000 nM
- IC50 (BTSC30M; read-out: IC50 BTSC 30M, Table 6, in parallel with other cancer lines): 0.505 µM
- remaining activity at 5 µM (JAK1; read-out: % Enzyme activity relative to DMSO (control), JAK1): 98.3%
- % Enzyme activity relative to DMSO (control), JAK1 (JAK1; remaining activity): 97.79%
- remaining activity at 5 µM (c-Src; read-out: % Enzyme activity relative to DMSO (control), c-Src): 41.6%
- % Enzyme activity relative to DMSO (control), c-Src (c-Src; remaining activity): 39.16%
- IC50 [2]: < 1000 nM

Compound: CN(CC(=O)N(Cc1ccc(C2CCCCC2)cc1)c1ccc(NC(=O)Cc2nnn[nH]2)cc1)S(=O)(=O)c1c(F)c(F)c(F)c(F)c1F [Compound 41, N-(4-(2-(1H-tetrazol-5-yl)acetamido)phenyl)-N-(4-cyclohexylbenzyl)-2-(2,3,4,5,6-pentafluoro-N-methylphenylsulfonamido)acetamide]
- IC50 (BTSC73M): 3500 nM
- IC50 [3]: 16400 nM

Compound: CN(CC(=O)N(Cc1ccc(C2CCCCC2)cc1)c1ccc(C(=O)OCOC(=O)C(C)(C)C)cc1)S(=O)(=O)c1c(F)c(F)c(F)c(F)c1F [Compound 27, (pivaloyloxy)methyl 4-(N-(4-cyclohexylbenzyl)-2-(2,3,4,5,6-pentafluoro-N-methylphenylsulfonamido)acetamido)benzoate]
- 30M IC50 (μM) (BTSC30M; [5]): no effect
- disruption of STAT3:phosphopeptide interaction / binding activity (in words) (STAT3 SH2 domain): most potent inhibitor of STAT3
- 68EF IC50 (μM) (BTSC68EF): no effect

Compound: CN(CC(=O)N(Cc1ccc(C2CCCCC2)cc1)c1ccccc1)S(=O)(=O)c1c(F)c(F)c(F)c(F)c1F [Compound 36, N-(4-cyclohexylbenzyl)-2-(2,3,4,5,6-pentafluoro-N-methylphenylsulfonamido)-N-phenylacetamide]
- 73M IC50 (μM) (BTSC73M): no effect
- disruption of STAT3:phosphopeptide interaction / binding activity (in words) (STAT3 SH2 domain): no disruption of the STAT3:phosphopeptide interaction

Compound: CN(CC(=O)N(Cc1ccc(C2CCCCC2)cc1)c1ccc(O)c(C(=O)O)c1)S(=O)(=O)c1c(F)c(F)c(F)c(F)c1F [Compound 38, 5-(N-(4-cyclohexylbenzyl)-2-(2,3,4,5,6-pentafluoro-N-methylphenylsulfonamido)acetamido)-2-hydroxybenzoic acid]
- IC50 (BTSC73M): 2550 nM
- IC50 [3]: 4800 nM
- IC50 (BTSC30M; [6]): 2.07 µM
- IC50 (BTSC68EF): 3050 nM

Compound: Cc1ccc(S(=O)(=O)N(C)CC(=O)N(Cc2ccc(C3CCCCC3)cc2)c2ccc(C(=O)O)cc2)cc1 [Compound 42, 4-(N-(4-cyclohexylbenzyl)-2-(N,4-dimethylphenylsulfonamido)acetamido)benzoic acid]
- 73M IC50 (μM) (BTSC73M): no effect
- IC50 [3]: 16700 nM
- 30M IC50 (μM) (BTSC30M; [5]): no effect

Compound: CC(=O)Oc1cc(N(Cc2ccc(C3CCCCC3)cc2)C(=O)CN(C)S(=O)(=O)c2c(F)c(F)c(F)c(F)c2F)ccc1C(=O)O [Compound 22, 2-acetoxy-4-(N-(4-cyclohexylbenzyl)-2-(2,3,4,5,6-pentafluoro-N-methylphenylsulfonamido)acetamido)benzoic acid]
- EC50 (BTSCs; collective range over 8 BTSC lines, read-out: EC50s across all 8 BTSCs evaluated): 66 to 1140 nM
- IC50 (BTSCs; collective range, units given in the value, read-out: IC50 values of the top four ranked compounds against BTSCs): 100 to 3800 nM
- IC50 (BTSC73M): 1450 nM
- pSTAT3 inhibition potency (pSTAT3 (Y705); 0, 0.1, 0.5, 1.0 and 5.0 μM): nM inhibition of pSTAT3
- suppression of pSTAT3 (Y705) (pSTAT3 (Y705); 1 μM, BTSCs): most suppression of pSTAT3 (Y705)
- IC50 (BTSC30M; [6]): 0.526 µM
- IC50 (BTSC30M; read-out: IC50 (nM) in BTSC 30M): 0.526 ± 0.013 µM
- toxicity in normal human cells [4]: minimal toxicity
- IC50 (147EF): 776 nM
- IC50 (BTSC68EF): 891 nM
